Assays:
Human SGLT2 = target: T1, Human SGLT2 (Homo sapiens, UniProt P31639); test: Cell-based assay for inhibition of uptake of 14C-methyl-α-D-glucopyranoside (14C-AMG) in CHO-K1 cells stably expressing human SGLT2; conditions: 14C-AMG uptake, 1 hour at 37° C.; for inhibition at 10 µM: compound at 10 μM; for inhibition at 100 µM: compound at 100 μM
T1 construct: pCMV6 vector containing the full length human SGLT2 gene
T1 sequence (P31639 1-672): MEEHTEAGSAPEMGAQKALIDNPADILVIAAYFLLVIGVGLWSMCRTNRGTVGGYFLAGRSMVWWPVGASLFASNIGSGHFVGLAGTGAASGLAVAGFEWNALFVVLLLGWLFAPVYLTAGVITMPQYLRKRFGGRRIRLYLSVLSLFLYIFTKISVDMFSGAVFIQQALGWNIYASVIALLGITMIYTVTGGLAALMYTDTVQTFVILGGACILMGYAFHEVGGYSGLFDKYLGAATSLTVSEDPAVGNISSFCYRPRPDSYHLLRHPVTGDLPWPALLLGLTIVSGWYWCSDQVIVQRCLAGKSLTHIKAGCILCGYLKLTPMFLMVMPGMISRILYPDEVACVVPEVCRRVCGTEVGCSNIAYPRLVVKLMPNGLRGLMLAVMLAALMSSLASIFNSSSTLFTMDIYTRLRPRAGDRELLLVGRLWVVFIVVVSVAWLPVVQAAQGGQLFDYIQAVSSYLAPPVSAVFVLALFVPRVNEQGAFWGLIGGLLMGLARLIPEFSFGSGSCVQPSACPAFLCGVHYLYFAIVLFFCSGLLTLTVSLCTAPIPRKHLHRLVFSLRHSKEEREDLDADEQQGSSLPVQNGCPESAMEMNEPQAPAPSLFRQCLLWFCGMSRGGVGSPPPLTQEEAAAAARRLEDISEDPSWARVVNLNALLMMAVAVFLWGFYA
Excerpt: The compounds of the invention have been tested for their ability to inhibit Human Sodium Glucose Co-Transporter 2 (Human SGLT2) according to the following protocol:
(§1) 1. Preparation of Human SGLT1 and Human SGLT2 Expression Vectors:
• Human SGLT1 (Genbank M24847) cDNA was cloned from a pCMV6 vector containing the full length human SGLT1 gene (Origene NM 000343, Cat. #: RC221312) and Human SGLT2 (Genbank M95549) cDNA was cloned from a pCMV6 vector containing the full length human SGLT2 gene (Origene NM_003041, Cat. #: RC224822). The full cDNAs were subcloned independently into mammalian cell expression plasmid pSPI1 and sequenced to verify the integrity of the construct. 2. Preparation of CHO-K1 Cells Stably Expressing Human SGLT1 and Human SGLT2: • Transfection of CHO-K^1 cells was performed using 2.5 ug of pSPI1-SGLT1 or pSPI1-SGLT2 plasmid with about 6 ul of Lipofectamin 2000 (Invitrogen, Cat. #: 11668-019) in about 1.5×10^5 CHO-K1 cells using 12-well cell culture plate (Becton Dickinson, Cat. #: 353003) in the presence of DMEM medium (Dulbecco's Modified Eagle Medium) (Gibco, Cat. #: 11885-092) containing 10% FBS (Sigma, Cat. #: F1051-500mL). Transfectants were then selected in the presence of the antibiotic G418 (GIBCO, Cat. #: 11811-031) at final concentration of 750 ug/ml. Individual clones for both SGLT1 and SGLT2 were then characterized using the functional cell-based assay described below. 3. Cell-Based Assay for Inhibition of Uptake of methyl-α-D-glucopyranoside by Human SGLT1 and Human SGLT2: • Selected cell lines stably expressing human SGLT1 or human SGLT2 were then used for functional analysis of sodium dependent glucose uptake. Sodium-dependent D-glucose transport was determined by measuring the uptake of 14C-methyl-α-D-glucopyranoside (14C-AMG) with a specific activity of 250-350mCi (9.25-13.0 GBq)/mmol (PerkinElmer, Cat. #: NEC 659250UC). The assay buffer used to assess sodium-dependent D-glucose transport was Krebs-Ringer-Henseleit (KRH) solution containing 4.7 mM KCl, 1.2 mM MgCl2, 2.2 mM CaCl2, 10 mM Hepes pH 7.4 with Tris (Sigma). For sodium (Na^+) conditions the Assay Buffer containing 120 mM NaCl (Na^+) was used to assess sodium-dependent D-glucose transport (KRH-Na^+). For sodium free conditions, KRH solution containing 120 mM N-methyl-glucamine (NMG) instead of NaCl (Na^+) was used to assess sodium-independent D-glucose transport (KRH-NMG). All buffer chemicals were purchased from Sigma. • In brief, the cells were plated at a density of 40,000 cells per well in a 96-well plate in DMEM media and allowed to grow for 24 hours. Cells were subsequently washed twice (2×100 μL) with KRH buffer cells containing NMG. […] Scintillation cocktail (1004) was added and the 14C-AMG radioisotope counted in a MicroBeta Trilux (PerkinElmer).

Human SGLT1 = target: T2, Human SGLT1 (Homo sapiens, UniProt P13866); test: Cell-based assay for inhibition of uptake of 14C-methyl-α-D-glucopyranoside (14C-AMG) in CHO-K1 cells stably expressing human SGLT1; conditions: compound at 100 μM, 14C-AMG uptake, 1 hour at 37° C.
T2 construct: pCMV6 vector containing the full length human SGLT1 gene
T2 sequence (P13866 1-664): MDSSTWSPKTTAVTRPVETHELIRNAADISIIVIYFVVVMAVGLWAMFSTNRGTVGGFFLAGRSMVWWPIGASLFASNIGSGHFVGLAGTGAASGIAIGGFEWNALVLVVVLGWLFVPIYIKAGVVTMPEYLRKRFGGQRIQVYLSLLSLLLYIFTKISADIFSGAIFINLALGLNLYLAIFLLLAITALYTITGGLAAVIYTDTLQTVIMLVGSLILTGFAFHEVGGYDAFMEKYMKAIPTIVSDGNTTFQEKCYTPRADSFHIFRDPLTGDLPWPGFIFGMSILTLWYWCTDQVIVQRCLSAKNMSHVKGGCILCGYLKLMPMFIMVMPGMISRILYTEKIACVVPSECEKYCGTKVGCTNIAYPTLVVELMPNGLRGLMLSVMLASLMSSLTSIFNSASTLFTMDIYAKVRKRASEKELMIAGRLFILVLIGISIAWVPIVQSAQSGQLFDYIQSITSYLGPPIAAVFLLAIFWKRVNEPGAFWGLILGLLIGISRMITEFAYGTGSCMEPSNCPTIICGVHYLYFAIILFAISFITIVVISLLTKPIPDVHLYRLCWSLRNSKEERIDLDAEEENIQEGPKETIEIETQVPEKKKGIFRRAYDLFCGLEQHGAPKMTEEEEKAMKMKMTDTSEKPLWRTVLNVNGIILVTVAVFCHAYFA
Excerpt: as §1
• Human SGLT1 (Genbank M24847) cDNA was cloned from a pCMV6 vector containing the full length human SGLT1 gene (Origene NM 000343, Cat. #: RC221312) and Human SGLT2 (Genbank M95549) cDNA was cloned from a pCMV6 vector containing the full length human SGLT2 gene (Origene NM_003041, Cat. #: RC224822). The full cDNAs were subcloned independently into mammalian cell expression plasmid pSPI1 and sequenced to verify the integrity of the construct. 2. Preparation of CHO-K1 Cells Stably Expressing Human SGLT1 and Human SGLT2: • Transfection of CHO-K^1 cells was performed using 2.5 ug of pSPI1-SGLT1 or pSPI1-SGLT2 plasmid with about 6 ul of Lipofectamin 2000 (Invitrogen, Cat. #: 11668-019) in about 1.5×10^5 CHO-K1 cells using 12-well cell culture plate (Becton Dickinson, Cat. #: 353003) in the presence of DMEM medium (Dulbecco's Modified Eagle Medium) (Gibco, Cat. #: 11885-092) containing 10% FBS (Sigma, Cat. #: F1051-500mL). […] Sodium-dependent D-glucose transport was determined by measuring the uptake of 14C-methyl-α-D-glucopyranoside (14C-AMG) with a specific activity of 250-350mCi (9.25-13.0 GBq)/mmol (PerkinElmer, Cat. #: NEC 659250UC). […] Scintillation cocktail (1004) was added and the 14C-AMG radioisotope counted in a MicroBeta Trilux (PerkinElmer).

Structure (SMILES) | inhibition at 10 µM (Human SGLT2) [%] | inhibition at 100 µM (Human SGLT2) [%] | inhibition at 100 µM (Human SGLT1) [%]
OC[C@H]1O[C@@H](C(F)(F)c2ccccc2)[C@H](O)[C@@H](O)[C@@H]1O [Compound 100] | 30 | 79 | 46
CCc1ccc(Cc2ccccc2C(F)(F)[C@@H]2O[C@H](CO)[C@@H](O)[C@H](O)[C@H]2O)cc1 [Compound 104] | 40 | 56 | 48

Reference: patent US8486897B2, “C-aryl glycoside compounds for the treatment of diabetes and obesity” (TFCHEM, priority 2008, dated 2013)
